Measurements taken from patent US20230192691A1, “HETEROCYCLIC COMPOUNDS AS BTK INHIBITORS” (Beijing InnoCare Pharma Tech Co., Ltd., priority 2020, published 2023).

Experiments:
[1] = target: T1, human-derived recombinant BTK protein (Homo sapiens, UniProt Q06187); experiment: BTK activity inhibition assay (HTRF in vitro kinase assay); type: biochemical; details: 40 μM ATP, 0.2 ng/μL BTK
T1 construct: purchased Carna Biosciences 08-180
Method: In vitro kinase assay was used to evaluate the effects of compounds of the present invention on BTK activity (Table 1).
(§1) By using the homogeneous time-resolved fluorescence (HTRF) kinase detection kit (Cisbio, catalog number 62TK0PEC), the enzymatic activity of BTK is determined by detecting the phosphorylation level of the substrate in the kinase reaction. The reaction buffer contains the enzyme reaction buffer (1×) from the kit, 5 mM MgCl2, 1 mM DTT, 10 nM SEB and 0.01% Tween-20; the kinase reaction solution contains human-derived recombinant BTK protein (Carna Biosciences, Catalog No. 08-180) diluted to 0.2 ng/μL with the reaction buffer; the substrate reaction solution contains biotin-labeled tyrosine kinase substrate diluted to 0.5 μM with the reaction buffer and 40 μM ATP; the detection buffer contains Eu^3+-labeled cage antibody diluted to 0.05 ng/μL and streptavidin-labeled XL665 antibody diluted to 31.25 nM with the reaction buffer; the test compound is dissolved and diluted to 100 μM with DMSO, followed by a 4-fold serial dilution with DMSO to the lowest concentration of 6.1 nM and finally 40-time dilution with the reaction buffer for each concentration point. If the IC50 value of the compound is very low, the initial concentration of the compound is reduced.
(§2) Add 4 μL test compound solution and 2 μL kinase reaction solution to a 384-well detection plate (Corning, catalog number 3674), mix well and incubate at room temperature for 15 minutes; add 4 μL substrate reaction solution and incubate for 50 minutes; add 10 μL detection buffer, mix well and stand for 60 minutes; detect signal at 620 nm and 665 nm using an Envision plate reader (Perkin Elmer). The signal value (absorbance at 665 nm/absorbance at 620 nm) is positively correlated with the degree of phosphorylation of the substrate, thereby detecting the kinase activity of BTK. In this experiment, the group without BTK is the negative control (100% inhibition) and the group with BTK but no compound is the positive control (0% inhibition). The inhibition curve is plotted and the corresponding IC50 value of the test compound is calculated using XLfit software (ID Business Solutions Ltd., UK).

[2] = target: T2, human recombinant BTK C481S protein (Homo sapiens, UniProt Q06187, C481S); experiment: BTK C481S activity inhibition assay (HTRF in vitro kinase assay); type: biochemical; details: 35 μM ATP, 1.5 ng/μL BTK C481S
T2 construct: made in house
Method: In vitro kinase assay was used to evaluate the effects of compounds of the present invention on BTK C481S activity (Table 1).
as §1, with “BTK C481S” for “BTK”, “nM SEB,” for “nM SEB”, “contains human” for “contains human-derived”, “protein (purified in-house)” for “protein (Carna Biosciences, Catalog No. 08-180)”, “to 1.5” for “to 0.2”, “and 35” for “and 40”
as §2, with “activity of BTK C481S. In this” for “activity of BTK. In this”, “with BTK C481 S but no” for “with BTK but no”, “XLfit software (TD Business Solutions” for “XLfit software (ID Business Solutions”

T2 sequence (Q06187 whole entry C481S): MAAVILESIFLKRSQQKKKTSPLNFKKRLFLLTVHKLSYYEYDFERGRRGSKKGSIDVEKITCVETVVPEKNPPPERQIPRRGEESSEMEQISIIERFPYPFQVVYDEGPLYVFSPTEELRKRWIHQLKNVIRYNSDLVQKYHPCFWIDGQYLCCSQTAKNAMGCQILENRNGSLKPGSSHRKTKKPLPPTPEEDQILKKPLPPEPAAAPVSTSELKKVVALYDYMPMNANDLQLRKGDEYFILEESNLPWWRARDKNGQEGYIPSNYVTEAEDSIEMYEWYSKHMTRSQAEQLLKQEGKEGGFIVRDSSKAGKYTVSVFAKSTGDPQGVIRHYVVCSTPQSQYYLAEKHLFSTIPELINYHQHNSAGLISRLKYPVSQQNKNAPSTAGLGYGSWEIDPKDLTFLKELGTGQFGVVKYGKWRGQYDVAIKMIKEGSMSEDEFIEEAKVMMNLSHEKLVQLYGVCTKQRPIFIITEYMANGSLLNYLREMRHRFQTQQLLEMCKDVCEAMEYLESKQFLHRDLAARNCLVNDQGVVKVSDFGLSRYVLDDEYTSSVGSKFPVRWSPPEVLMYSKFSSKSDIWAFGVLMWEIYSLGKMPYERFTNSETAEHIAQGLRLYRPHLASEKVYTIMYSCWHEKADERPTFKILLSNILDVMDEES
T1 sequence (Q06187 whole entry): as the sequence (Q06187 whole entry C481S) above, with S481C counted along it

SMILES | IC50 [1] [nM] | IC50 [2] [nM]
[2H]C([2H])([2H])Oc1ccc(F)cc1C(=O)NCc1ccc(-c2nc(C3CCCOC3)n3ccnc(N)c23)cc1 (stereo not drawn) [Compound 25, N-(4-(8-amino-3-(tetrahydro-2H-pyran-3-yl)imidazo[1,5-a]pyrazin-1-yl)benzyl)-5-fluoro-2-(methoxy-dz)benzamide] | 1.1 | 1.5
COc1ccc(F)cc1C(=O)NCc1ccc(-c2nc(C34CCC(C(=O)O)(CC3)CC4)n3ccnc(N)c23)cc1 [Compound 34, 4-(8-amino-1-(4-((5-fluoro-2-methoxybenzamido)methyl)phenyl)imidazo[1,5-a]pyrazin-3-yl)bicyclo[2.2.2]octane-1-carboxylic acid] | 0.9 | 1.5
COc1ccc(F)cc1C(=O)NCc1ccc(-c2nn(C3CCOCC3)c3ccnc(N)c23)cc1 [Compound 1, N-(4-(4-amino-1-(tetrahydro-2H-pyran-4-yl)-1H-pyrazolo[4,3-c]pyridin-3-yl)benzyl)-5-fluoro-2-methoxybenzamide] | 17 | 3.5
COC(=O)C12CC(c3nc(-c4ccc(CNC(=O)c5cc(F)ccc5OC)cc4)c4c(N)ncnn34)(C1)C2 [Compound 29, methyl 3-(4-amino-5-(4-((5-fluoro-2-methoxybenzamido)methyl)phenyl)imidazo[5,1-f][1,2,4]triazin-7-yl)bicyclo[1.1.1]pentane-1-carboxylate] | 1.2 | 2.1
COc1ccc(F)cc1C(=O)NCc1ccc(-c2nc([C@H]3CC[C@H](C(=O)O)CC3)n3ccnc(N)c23)cc1 [Compound 13, (1r,4r)-4-(8-amino-1-(4-((5-fluoro-2-methoxybenzamido)methyl)phenyl)imidazo[1,5-a]pyrazin-3-yl)cyclohexane-1-carboxylic acid] | 1.4 | 0.8
COc1ccc(F)cc1C(=O)NCc1ccc(-c2nc(C(C)C(F)(F)F)n3ncnc(N)c23)cc1 (stereo not drawn) [Compound 26, N-(4-(4-amino-7-(1,1,1-trifluoropropan-2-yl)imidazo[5,1-f][1,2,4]triazin-5-yl)benzyl)-5-fluoro-2-methoxybenzamide] | 3.8 | 11
COc1ccc(F)cc1C(=O)NCc1ccc(-c2nc(C3CCCOC3)n3ncnc(N)c23)cc1 (stereo not drawn) [Compound 16, N-(4-(4-amino-7-(tetrahydro-2H-pyran-3-yl)imidazo[5,1-f][1,2,4]triazin-5-yl)benzyl)-5-fluoro-2-methoxybenzamide] | 1.8 | 1.1
COc1ccc(F)cc1C(=O)NCc1ccc(-c2nc(N3CCOCC3)n3ccnc(N)c23)cc1 [Compound 44, N-(4-(8-amino-3-morpholinoimidazo[1,5-a]pyrazin-1-yl)benzyl)-5-fluoro-2-methoxybenzamide] | 10 | 7.1
COc1ccc(F)cc1C(=O)NCc1ccc(-c2nc(C34CCC(C(=O)O)(CC3)C4)n3ccnc(N)c23)cc1 [Compound 40, 4-(8-amino-1-(4-((5-fluoro-2-methoxybenzamido)methyl)phenyl)imidazo[1,5-a]pyrazin-3-yl)bicyclo[2.2.1]heptane-1-carboxylic acid] | 0.4 | 1.1
COc1ccc(F)cc1C(=O)NCc1ccc(-c2nc([C@]3(C)CC[C@@](C)(C(=O)O)CC3)n3ncnc(N)c23)cc1 [Compound 47, (1r,4r)-4-(4-amino-5-(4-((5-fluoro-2-methoxybenzamido)methyl)phenyl)imidazo[5,1-f][1,2,4]triazin-7-yl)-1,4-dimethylcyclohexane-1-carboxylic acid] | 1.3 | 1.4
COc1ccc(F)cc1C(=O)NCc1ccc(-n2c(=O)n(C3CCOCC3)c3ncnc(N)c32)cc1 [Compound 51, N-(4-(6-amino-8-oxo-9-(tetrahydro-2H-pyran-4-yl)-8,9-dihydro-7H-purin-7-yl)benzyl)-5-fluoro-2-methoxybenzamide] | 4 | 9.2
COc1ccc(F)cc1C(=O)NCc1ccc(-c2nc([C@H]3CC[C@H](CO)CC3)n3ncnc(N)c23)cc1 [Compound 14, N-(4-(4-amino-7-((1r,4r)-4-(hydroxymethyl)cyclohexyl)imidazo[5,1-f][1,2,4]triazin-5-yl)benzyl)-5-fluoro-2-methoxybenzamide] | 3.2 | 2.9
COc1ccc(F)cc1C(=O)NCc1ccc(-c2nc(C3CCCOC3)n3ccnc(N)c23)cc1 (stereo not drawn) [Compound 21, N-(4-(8-amino-3-(tetrahydro-2H-pyran-3-yl)imidazo[1,5-a]pyrazin-1-yl)benzyl)-5-fluoro-2-methoxybenzamide] | 1.7 | 1.8
COC(=O)C12CCC(c3nc(-c4ccc(CNC(=O)c5cc(F)ccc5OC)cc4)c4c(N)ncnn34)(CC1)CC2 [Compound 28, methyl 4-(4-amino-5-(4-((5-fluoro-2-methoxybenzamido)methyl)phenyl)imidazo[5,1-f][1,2,4]triazin-7-yl)bicyclo[2.2.2]octane-1-carboxylate] | 1 | 2.2
COc1ccc(F)cc1C(=O)NCc1ccc(-c2nc([C@]3(C)CC[C@@](C)(C(=O)O)CC3)n3ccnc(N)c23)cc1 [Compound 32, (1r,4r)-4-(8-amino-1-(4-((5-fluoro-2-methoxybenzamido)methyl)phenyl)imidazo[1,5-a]pyrazin-3-yl)-1,4-dimethylcyclohexane-1-carboxylic acid] | 2.4 | 6.3
COc1ccc(F)cc1C(=O)NCc1ccc(-c2nc([C@@H]3CCN(C(=O)C4CC4)C3)n3ncnc(N)c23)cc1 [Compound 24, (R)-N-(4-(4-amino-7-(1-(cyclopropanecarbonyl)pyrrolidin-3-yl)imidazo[5,1-f][1,2,4]triazin-5-yl)benzyl)-5-fluoro-2-methoxybenzamide] | 3.9 | 2.5
COc1ccc(F)cc1C(=O)NCc1ccc(-c2nc(C34CC(C(=O)O)(C3)C4)n3ncnc(N)c23)cc1 [Compound 31, 3-(4-amino-5-(4-((5-fluoro-2-methoxybenzamido)methyl)phenyl)imidazo[5,1-f][1,2,4]triazin-7-yl)bicyclo[1.1.1]pentane-1-carboxylic acid] | 0.6 | 3
COc1ccccc1C(=O)NCc1ccc(-c2nc(C3CCC(CO)OC3)n3ccnc(N)c23)cc1 (stereo not drawn) [Compound 10, N-(4-(8-amino-3-(6-(hydroxymethyl)tetrahydro-2H-pyran-3-yl)imidazo[1,5-a]pyrazin-1-yl)benzyl)-2-methoxybenzamide] | 14 | 3.6
COc1ccc(F)cc1C(=O)NCc1ccc(-c2nc(N3CCC(C)(C(=O)O)CC3)n3ccnc(N)c23)cc1 [Compound 27, 1-(8-amino-1-(4-((5-fluoro-2-methoxybenzamido)methyl)phenyl)imidazo[1,5-a]pyrazin-3-yl)-4-methylpiperidine-4-carboxylic acid] | 2.7 | 1.3
COc1ccc(F)cc1C(=O)NCc1ccc(-c2nc(C3CCCC3)n3ncnc(N)c23)cc1 [Compound 12, N-(4-(4-amino-7-cyclopentylimidazo[5,1-f][1,2,4]triazin-5-yl)benzyl)-5-fluoro-2-methoxybenzamide] | 3 | –
